These results are taken from US20250353863A1, “TRICYCLIC SPIROLACTAM COMPOUNDS WITH ANTIMYCOBACTERIAL ACTIVITY” (priority 2022, published 2025).

The subject of the test is Mtb H37Rv-WT. As to the kind of experiment: MIC by resazurin microtiter assay (REMA) against Mtb. The settings on record: Mycobacterium tuberculosis. In kind it is cell-based.
The mark [1] stands for this setting: REMA, read-out: MIC M. tuberculosis.
[2] abbreviates: 144 h, REMA, 37° C., 6 days, read-out: MIC (μM) H37Rv-WT.

≈ marks a conversion by molar mass, not a printed value. Where two headings read alike, the source gives them in different places.

What is called MIC is the lowest concentration found to suppress growth.

Regarding `CC(C)[C@H]1CO[C@]23CCN(CCCc4ccc(C(F)(F)F)cc4)C[C@H]2CCC(=O)N13` [Example 39, (3S,7aR,11aR)-3-isopropyl-9-[3-[4-(trifluoromethyl)phenyl]propyl]-2,3,6,7,7a,8,10,11-octahydrooxazolo[2,3-j][1,6]naphthyridin-5-one], under setting [1], the minimal inhibitory concentration (MIC) is under 1 µM.
Turning to `CC(C)[C@H]1CO[C@]23CC[C@H](NCc4ccc(C(F)(F)F)cc4)C[C@H]2CCC(=O)N13`, under setting [2], the MIC is under 1 µM.
With `O=C1CC[C@@H]2CN(Cc3ccccc3)CC[C@@]23OC[C@H](C2CC2)N13` [(3S,7aR,11aR)-9-benzyl-3-cyclopropyl-2,3,6,7,7a,8,10,11-octahydrooxazolo[2,3-j][1,6]naphthyridin-5-one], the MIC under setting [2] is over 10 µM.
As to `CC(C)[C@H]1CO[C@]23CCN(C(=O)Cc4ccc(C(F)(F)F)cc4)C[C@H]2CCC(=O)N13` [(3S,7aR,11aR)-3-isopropyl-9-[2-[4-(trifluoromethyl)phenyl]acetyl]-2,3,6,7,7a,8,10,11-octahydrooxazolo[2,3-j][1,6]naphthyridin-5-one], the MIC under setting [2] was over 10 µM.
In the case of `CC(C)[C@H]1CO[C@]23CC(=O)N(Cc4ccc(C(F)(F)F)cc4)C[C@H]2CCC(=O)N13` [(3S,7aR,11aR)-3-isopropyl-9-[[4-(trifluoromethyl)phenyl]methyl]-3,6,7,7a,8,11-hexahydro-2H-oxazolo[2,3-j][1,6]naphthyridine-5,10-dione], the minimum inhibitory concentration (MIC) under setting [2] is over 10 µM.
On to `CC(C)[C@H]1CCO[C@]23CCN(Cc4ccc(C(F)(F)F)cc4)C[C@H]2CCC(=O)N13`, for which, under setting [2], the MIC fell in the range of 1 to 10 µM (≈ 0.41 to 4.1 µg/mL).
`CC(C)[C@H]1CO[C@]23CCN(Cc4cc(C5CC5)nc5ccccc45)C[C@H]2CCC(=O)N13` [Example 24, (3S,7aR,11aR)-9-[(2-cyclopropyl-4-quinolyl)methyl]-3-isopropyl-2,3,6,7,7a,8,10,11-octahydrooxazolo[2,3-j][1,6]naphthyridin-5-one]: under setting [1], the minimum inhibitory concentration (MIC) was under 1 µM.
For the compound `CC(C)[C@H]1CO[C@]23CCN(Cc4cc(C(F)(F)F)nc5ccccc45)C[C@H]2CCC(=O)N13` [Example 25, (3S,7aR,11aR)-3-isopropyl-9-[[2-(trifluoromethyl)-4-quinolyl]methyl]-2,3,6,7,7a,8,10,11-octahydrooxazolo[2,3-j][1,6]naphthyridin-5-one], the MIC under setting [1] is under 1 µM.
As to `C=CC[C@H]1C[C@@H]2CN(Cc3ccc(C(F)(F)F)cc3)CC[C@@]23OC[C@H](C(C)C)N3C1=O` [(3S,6S,7aR,11aR)-6-allyl-3-isopropyl-9-[[4-(trifluoromethyl)phenyl]methyl]-2,3,6,7,7a,8,10,11-octahydrooxazolo[2,3-j][1,6]naphthyridin-5-one], the MIC under setting [2] is over 10 µM.
Consider `CC(C)[C@H]1CO[C@]23CCN(Cc4ccncc4)C[C@H]2CCC(=O)N13` [(3S,7aR,11aR)-3-isopropyl-9-(4-pyridylmethyl)-2,3,6,7,7a,8,10,11-octahydrooxazolo[2,3-j][1,6]naphthyridin-5-one], for which the minimum inhibitory concentration (MIC) (144 h, read-out: MIC (μM) H37Rv-WT) is over 10 µM.
Take `Cc1c(CN2CC[C@]34OC[C@H](C(C)C)N3C(=O)CC[C@@H]4C2)[nH]c2ccccc12` [(3S,7aR,11aR)-3-isopropyl-9-[(3-methyl-1H-indol-2-yl)methyl]-2,3,6,7,7a,8,10,11-octahydrooxazolo[2,3-j][1,6]naphthyridin-5-one]: the minimal inhibitory concentration (MIC) under setting [2] was under 1 µM.
For `CC(C)[C@H]1CO[C@]23CCN(Cc4ccc(N5CCC(c6ccc(OC(F)(F)F)cc6)CC5)cc4)C[C@H]2CCC(=O)N13` [(3S,7aR,11aR)-3-isopropyl-9-[[4-[4-[4-(trifluoromethoxy)phenyl]-1-piperidyl]phenyl]methyl]-2,3,6,7,7a,8,10,11-octahydrooxazolo[2,3-j][1,6]naphthyridin-5-one], the MIC under setting [2] is under 1 µM.
Same read-out and setting: for `CC(C)[C@H]1CO[C@]23CCN(c4ccc(C(F)(F)F)cc4)C[C@H]2CCC(=O)N13` [(3S,7aR,11aR)-3-isopropyl-9-[4-(trifluoromethyl)phenyl]-2,3,6,7,7a,8,10,11-octahydrooxazolo[2,3-j][1,6]naphthyridin-5-one] the value was 1 to 10 µM (≈ 0.382 to 3.82 µg/mL).
